This is an account of results in US11197885B2, “Collagen enhancing agent made from low acyl gellan gum, methods of making and methods of using the same” (The University of Toledo, priority 2015, dated 2021).

What all share (type): cell-based
The subject of test [1] is primary mouse cortical neurons (E17, DIV4). The test is described as follows: neurite outgrowth in primary mouse cortical neurons. The settings on record: 2 days; midi-GAGR, dextran, alginate 1 μM; LA-GAGR 0.1 μM; HA-GAGR 0.01 μM. How it is done:
To analyze the effect of polysaccharides on neurite outgrowth, primary mouse cortical neurons were treated with vehicle (H2O) or 1 μM of dextran, alginate, or midi-GAGR, 0.01 μM of HA-GAGR, or 0.1 μM of LA-GAGR for 2 days prior to immunocytochemistry using anti-α-tubulin antibody and secondary Alexa488nm antibody. An etched grid coverslip containing 200 numbered boxes was used to select neurons objectively for image acquisition and analysis. A total of 24 boxes were randomly selected per treatment group. All the neurons having total neurite length longer than 4 times of the diameter of neuron cell body were chosen for image analysis. The total length of the neurites of each neuron was measured using Metamorph and used to calculate average total neurite length. To examine the effect of polysaccharides on the phosphorylation (activation) of nuclear CREB, neurons were stained with anti-pCREB antibody (Abcam & Santa Cruz biotechnologies, 2nd antibody with Alexa568nm), anti-α-tubulin antibody (Sigma, 2nd antibody with Alexa488nm), and DAPI (Sigma) after two-day incubation with vehicle (H2O) or 1 μM of dextran, alginate, or midi-GAGR, 0.01 μM of HA-GAGR, or 0.1 μM of LA-GAGR. […] The images of neurons on coverslips were taken by confocal microscopy at the same gain (850), offset (−0.01), and exposure time (2 sec). The intensity of the staining of nuclear pCREB was measured using Metamorph and used to calculate average intensity. In addition, the phosphorylation of CREB in the cytosols of mouse cortical neurons treated with polysaccharides were detected by immunoblotting. Primary mouse neurons were dissected from 16 mouse embryos (E17) and plated in the wells of 6-well plates (1×10^6 cells/well), differentiated for 6 days, and treated with polysaccharides for 48 h. […] The protein bands on blots recognized by anti-pCREB (Santa Cruz Biotechnologies) and anti-CREB antibodies were detected on Amersham Hyperfilm™ ECL films (GE Healthcare Life Science) using SuperSignal® West Pico Chemiluminescent Substrate (Thermo Scientific).

Test [2] deals with rat embryonic cortical neurons exposed to 25 μM 4-HNE. The test is described as follows: neuritic atrophy caused by 4-HNE in cortical neurons. The settings on record: pre-treatment 2 days (1 μM; ascorbate 100 μM), then 25 μM 4-HNE 1 day. How it is done: Rat embryonic cortical neurons were treated with mock (FIG. 11C), 1 μM HA-GAGR (high acyl gellan gum), 1 μM dextran, 100 μM ascorbate, or 1 μM midi-GAGR (FIG. 13A) for 2 days and then with 25 μM 4-hydroxynonenal (4-HNE), a lipid peroxide, for 1 day. After fixation, neurons were immunostained with anti-synaptophysin antibody (green) and rhodamine-phalloidin (actin: red). Scholl ring analysis was performed.

In test [3] the test system is mouse cortical neurons (E17, DIV5). The test is described as follows: LIVE/DEAD assay, pre-treatment of mouse cortical neurons before 4HNE, H2O2 or Aβ42. The following applies: pre-treatment 24 h (same concentrations). The text has this: The protective effect of polysaccharides on primary cortical neurons from 4HNE, H2O2, and Aβ42 peptide (Sigma) was examined using LIVE/DEAD® Viability/Cytotoxicity Assay Kit (Life Technologies). Female pregnant mice (BALB/C, E17, Charles River Laboratories International, Inc.) or female pregnant SD rats (E17, bred in house) were anesthetized and dissected to obtain 8-9 embryos per animal. Cortical neurons were isolated from embryonic brains and differentiated on poly-L-lysine-coated coverslips in B27/neurobasal medium. For drug treatment before free radical treatment, mouse cortical neurons (5 days in vitro [DIV5]) were treated with vehicle (H2O), 1 μM of 5 kD dextran (Sigma), alginate (Sigma), midi-GAGR, 0.01 μM of high acyl gellan gum (HA-GAGR, CPKelco Co.), or 0.1 μM of LA-GAGR for 24 h and then treated with 10 μM 4HNE or 50 μM H2O2 for 24 h, or 2 μM Aβ42 peptide for 48 h prior to viability/cytotoxicity assay. For drug co-treatment with free radicals, rat cortical neurons (DIV5) were treated with 1 μM of dextran, alginate, or midi-GAGR, 0.01 μM of HA-GAGR, or 0.1 μM of LA-GAGR along with either 10 μM 4HNE (24 h) or 2 μM Aβ42 peptide (48 h). To examine the extent to which midi-GAGR-mediated neuroprotection depends on FGFR1, rat cortical neurons (E17, DIV5) were pre-treated with 4 μM SU5402 (Sigma) for 6 h and treated with 10 μM 4HNE and either vehicle or 1 μM midi-GAGR for 24 h prior to cell viability/cytotoxicity assay. As controls, neurons were treated with SU5402, midi-GAGR, 4HNE, 4HNE plus midi-GAGR, or SU5402 plus midi-GAGR.
For cell viability/cytotoxicity measurement, neurons on glass coverslips were incubated in 1×PBS containing 2 μM calcein AM (live cells: green) and 4 μM ethidium homodimer-1 (dead cells: red) for 10 min at 37° C. Immediately thereafter, neurons were imaged by 10×objective using a fluorescence Olympus IX71 microscope (Olympus America Inc., Center Valley, Pa.) and, for the acquisition of high-quality images, using TCS SP5 multi-photon laser scanning confocal microscope.
Midi-GAGR attenuated neurite atrophy caused by free reactive radicals. It is now shown herein that midi-GAGR protect neurons from the death caused by free radical insults. The extent to which midi-GAGR protects the primary culture of rodent cortical neurons from 4HNE and H2O2 was determined. In addition to the radicals, amyloid β peptide (Aβ42) was also tested. Aβ42 peptide is a major causative factor that causes oxidative stress and neuron death. Mouse cortical neurons (E17, DIV5) were treated with 10 μM 4HNE (24 h), 50 μM H2O2 (24 h), or 2 μM Aβ42 peptide (48 h) after the treatment of the neurons with vehicle (H2O), midi-GAGR (1 μM), dextran (1 μM), alginate (1 μM), LA-GAGR (0.1 μM), or HA-GAGR (0.01 μM) for 24 h. The concentrations of 4HNE, H2O2, and Aβ42 peptide were chosen according to their patho-physiological concentrations. The concentrations of LA-GAGR and HA-GAGR were chosen because, within the same volume, the total numbers of sugar units in the polysaccharides at the concentrations are close to that of 1 μM midi-GAGR. The viability of neurons was assessed using LIVE/DEAD® Viability/Cytotoxicity Assay Kit in which membrane-permeant calcein AM is cleaved by esterase in live cells, thus yielding green fluorescence, and membrane-impermeant ethidium homodimer-1 stains the nucleic acids of plasma membrane-compromised cells with red fluorescence. The numbers of green (live) and red (dead) neurons in each condition were counted using Metamorph. Although the intensities of green fluorescent signals in neurons treated with either free radicals or Aβ42 peptide were weak, the neurons were included in the counting. About 8-9% of vehicle-treated neurons died during the process of live/dead cell assay (FIGS. 23A-23F, FIGS. 24A-24C).

Turning to dextran, in test [1], the “fold change in average total neurite length vs vehicle” value is listed as “did not enhance neuritogenesis”. Moreover, the “neurites in the presence of 4-HNE (neuritic atrophy)” value in test [2] is recorded as “lost neuritis”. The entries for the “percent of neuron death” value in test [3] (then 2 μM Aβ42 peptide 48 h) and in test [3] (then 50 μM H2O2 24 h) were “did not decrease” and “did not reduce”, respectively.
